These results are taken from patent US20160177259A1, “[…]” (Evonik Degussa GmbH, priority 2014, published 2016).

The experiment relates to Clostridium ljungdahlii. Briefly: Autotrophic production in carbonate buffer on synthesis gas with 0.4 g/l or no L-cysteine HCl (Example 2). The class given is cell-based. The settings on record: for Acetate (NMR) / Ethanol (NMR) / OD600 / Δp: reactor 2, 0.4 g/L L-Cysteine-HCl. The method, then:
For the production, anaerobic carbonate buffer (adjusted with KOH 1.87 g/L) was used.
Identical autotrophic productions were carried out in 500 mL septum bottles with 100 mL of carbonate carried out in a shaking water bath shaker (open Innova 3100 by New Brunswick Scientific) at 100 min^−1. The productions were carried out at 37° C. with manual control of the pH. Once the pH dropped below 5.5, KOH was metered from a stock solution of 187 g/L. In the present experiments the pH in both reactors at points in time of 50.3 h and 73.3 h were taken and corrected by the addition of each 1.87 g/L KOH manually.
The reactors were inoculated with a synthesis gas mixture of 67% H2 and 33% CO2 pressurized with an overpressure of 0.8 bar. To replenish the consumed gas, the gas atmosphere was completely replaced once a day in the headspace of the reactors and again pressured to 0.8 bars.
The reactor 1 contained a concentration of L-cysteine HCl of 0 g/L, and reactor 2 a concentration of L-cysteine HCl of 0.4 g/L.
The reactors started with autotrophic cells at an OD of 0.2. The pre-culture was carried out continuously in a 1 L bottle with 500 ml of complex medium. The complex medium comprised of 1 g/l NH4Cl, 0.1 g/l KCl, 0.2 g/l MgSO4×7 H2O, 0.8 g/l NaCl, 0.1 g/l KH2PO4, 20 mg/l CaCl2×2 H2O, 20 g/l MES, 1 g/l yeast extract, 0.4 g/L L-cysteine HCl, 20 mg/l nitrilotriacetic acid, 10 mg/l MnSO4 H2O x, 8 mg/l (NH4)2Fe(SO4)2×6 H2O, 2 mg/L CoCl2×6 H2O, 2 mg/l ZnSO4×7 H2O, 0.2 mg/l CuCl2×2H2O, 0.2 mg/l Na2MoO4×2 H2O, 0.2 mg/l NiCl2×6 H2O, 0.2 mg/l Na2SeO4, 0.2 mg/l Na2WO4×2 H2O, 20 μg/l d-biotin, 20 μg/L folic acid, 100 μg/l pyridoxine HCl, 50 μg/l thiamine-HCl×H2O. 50 μg/l of riboflavin, 50 μg/l nicotinic acid, 50 μg/l Ca-pantothenate, 1 μg/L of vitamin B12, 50 μg/l p-aminobenzoate, 50 μg/l lipoic acid. The gassing of the culture with synthesis gas (67% H2, 33% CO2) was carried out continuously at a flow rate of 3 l/h over a filter with pore size of 10 microns. The cells were in late log phase of growth at an OD of 0.23 anaerobically centrifuged (4500 rpm, 4300 g, 20° C., 10 min). The supernatant was discarded and the cell pellet resuspended in 10 ml carbonate buffer. The prepared cells were then used to inoculate the actual experiments.
When sampling each 5 ml sample was removed for determination of 0D600, pH and the product range. The determination of the product concentration was performed by quantitative ^1H-NMR spectroscopy. As an internal quantification standard sodium trimethylsilylpropionate (T(M)SP) was used.

On to `Cl.N[C@@H](CS)C(=O)O` [L-Cysteine-HCl, L-cysteine hydrochloride], for which, where the note is “0.4 g/L compared with no L-cysteine-HCl, end of 98.8 h reaction time”, the “concentrations of ethanol and acetate formed” value was “higher”. Further, the “Acetate (NMR)” value is listed as 15 mg/L (0.0 h), 1714 mg/L (26.0 h), 2471 mg/L (50.3 h) and 3366 mg/L (98.8 h). Also, the “Ethanol (NMR)” value reads like this: (0.0 h) 5 mg/L; (26.0 h) 21 mg/L; (50.3 h) 91 mg/L; (98.8 h) 84 mg/L. Also, the OD600 came out at 0.18 (0.0 h); 0.18 (26.0 h); 0.19 (50.3 h); 0.18 (74.3 h); 0.18 (98.8 h). Moreover, the Δp was 0.6 bar (26.0 h), 0.5 bar (50.3 h), 0.4 bar (74.3 h) and 0.2 bar (98.8 h). The gas consumption result (reactor 2 with 0.4 g/L compared with 0 g/L L-cysteine-HCl, over 98.8 h) is “higher”.
